Results taken from patent publication US20050245559A1, “Treatment and prevention of prostate cancer” (priority 2004, published 2005).

Legend:
[1] = system: Caspase-3; assay: Caspase-3 activation; type: cell-based; conditions: FIG. 6
[2] = system: LNCaP cells; assay: growth and proliferation of LNCaP cells stimulated by dihydrotestosterone (DHT); type: cell-based
Description: Tetrandrine inhibits the growth and proliferation of prostate cancer cells in a dose- and time-dependent manner. For example, the growth and proliferation of LNCaP cells stimulated by dihydrotestosterone (DHT) and fetal calf serum (FCS) can be stopped or inhibited and, at higher concentrations or at longer exposure times, the cells are killed. Preferably, the concentration of tetrandrine used is between about 10 μM and about 60 μM. […] The cells take on an atrophied appearance after contact with tetrandrine.

[3] = system: PARP; assay: PARP cleavage; type: cell-based; conditions: FIG. 7
[4] = system: LNCaP cells; assay: dose response of LNCaP growth and proliferation, optical density of stained live cells; type: cell-based
[5] = system: prostate specific antigen (PSA); assay: DHT-stimulated prostate specific antigen (PSA) expression in LNCaP cells; type: cell-based
[6] = system: PC3 prostate cancer cells; assay: killing of hormone-independent PC3 prostate cancer cells; type: cell-based; conditions: increasing concentrations, 96 hours of exposure; FIG. 4
[7] = doses of from 100 mg/day to 300 mg/day, prior studies; cited from earlier work
[8] = system: calcium channel; conditions: cited from earlier work
[9] = system: PC3 prostate cancer cells; assay: clonogenic activity of PC3 prostate cancer cells; type: cell-based; conditions: dose dependent, FIG. 5
[10] = system: LNCaP prostate cancer cells; assay: flow cytometry of apoptosis and necrosis in LNCaP cells; type: cell-based; conditions: 24 hours or 48 hours exposure
Description: (§1) The increasing apoptosis and necrosis in hormone-independent and hormone dependent prostate cancer cells after exposure to tetrandrine occurs in a dose- and time-dependent manner.

[11] = system: Bcl-XL; assay: Bcl-XL down-regulation in prostate cancer cells; type: cell-based; conditions: FIG. 9
[12] = system: Caspase-8; assay: Caspase-8 activation; type: cell-based; conditions: FIG. 6
[13] = system: Caspase-7; assay: Caspase-7 activation; type: cell-based; conditions: FIG. 6
[14] = system: prostate cancer cells; assay: morphology of cellular organelles of prostate cancer cells; type: cell-based; conditions: about 10 μM and 20 μM tetrandrine
[15] = system: Caspase-9; assay: Caspase-9 activation; type: cell-based; conditions: FIG. 6
[16] = system: LNCaP cells; assay: growth and proliferation of LNCaP cells stimulated by fetal calf serum (FCS); type: cell-based
[17] = system: cytochrome-C; assay: mitochondrial cytochrome C release; type: cell-based; conditions: FIG. 8
[18] = system: prostate cancer cells; assay: cell cycle effect in prostate cancer cells; type: cell-based; conditions: stated as apparent mechanism
Description: as §1

Structure (SMILES): COc1ccc2cc1Oc1ccc(cc1)CC1c3cc(c(OC)cc3CCN1C)Oc1c(OC)c(OC)cc3c1C(C2)N(C)CC3 (centres unmarked) [tetrandrine, (1B)-6,6′,7,12-tetramethoxy-2,2′-dimethyl-berbaman]
- Caspase-3 activation [1]: concentration-dependent increase
- cell number and morphology of LNCaP cells in presence of FCS and DHT ([2]; about 10 μM to about 20 μM tetrandrine, FIG. 2B): decrease in cell number and atrophied appearance
- growth and proliferation of LNCaP cells stimulated by DHT ([2]; about 10 μM to about 60 μM tetrandrine, FIG. 1A): inhibition of the growth and proliferation
- PARP cleavage [3]: concentration-dependent increase
- death of LNCaP cells at longer exposure ([4]; 48 hours and 72 hours versus 24 hours, each concentration): death of LNCaP cells is greater
- growth of LNCaP cells, stained live cells ([4]; about 5 μM tetrandrine, 24 hours): growth of LNCaP cells is inhibited
- killing of LNCaP cells, stained live cells ([4]; about 60 μM tetrandrine, 24 hours): almost all LNCAP cells are killed
- DHT-stimulated PSA expression [5]: inhibits DHT-stimulated prostate specific antigen (PSA) expression in a dose-dependent manner
- killing of hormone-independent PC3 cells [6]: dose-dependent killing
- toxicity [7]: minimal toxicity
- calcium channel blocker activity [8]: minimal
- clonogenic activity of PC3 cells [9]: inhibition of the clonogenic activity
- clonogenic activity of PC3 cells ([9]; listed as Tetrandrine): inhibits the clonogenic activity
- apoptosis and necrosis by flow cytometry [10]: increasing apoptosis and necrosis in a dose- and time-dependent manner
- Bcl-XL level in prostate cancer cells [11]: concentration-dependent down-regulation
- Caspase-8 activation [12]: concentration-dependent increase
- Caspase-7 activation [13]: concentration-dependent increase
- morphology of nuclei and cytoskeleton [14]: nuclei of prostate cancer cells appear to shrink and round while the cytoskeleton is disrupted
- Caspase-9 activation [15]: concentration-dependent increase
- cell number and morphology of LNCaP cells growing under FCS ([16]; 10 μM tetrandrine, FIG. 2A): decrease in cell number and the notable change in cell morphology
- cell number and morphology of LNCaP cells growing under FCS ([16]; 20 μM tetrandrine, FIG. 2A): the decrease in cell number and the change in cell morphology is even more apparent
- growth and proliferation of LNCaP cells stimulated by FCS ([16]; about 10 μM to about 60 μM tetrandrine, FIG. 1B): inhibition of the growth and proliferation
- cell number and morphology of LNCaP cells growing under FCS ([16]; concentration not given): sharp decrease in cell number and a significant change in cell morphology
- cytoplasmic cytochrome-C [17]: concentration-dependent increase
- mitochondrial cytochrome-C [17]: concentration-dependent decrease
- mechanism of decreased proliferation / increased apoptosis (cell cycle) [18]: cell cycle arrest in G1
